The CheMixHub viscosity set
Where “and” joins values, the source holds several entries; their conditions need not be identical. Equal entries are not always repeated.

Experiment: xn = mol fraction of the nth substance listed

COCCOCCOC + COC(=O)OC
viscosity [mPa·s], 101.33 kPa
Details | 298.15 K | 308.15 K | 318.15 K
x1 = 0.0428 | 0.608 | 0.536 | 0.485
x1 = 0.0832 | 0.626 | 0.55 | 0.496
x1 = 0.149 | 0.66 | 0.576 | 0.516
x1 = 0.2102 | 0.693 | 0.6 | 0.536
x1 = 0.2752 | 0.723 | 0.626 | 0.556
x1 = 0.3253 | 0.752 | 0.647 | 0.571
x1 = 0.3937 | 0.784 | 0.674 | 0.592
x1 = 0.4775 | 0.818 | 0.701 | 0.615
x1 = 0.5765 | 0.855 | 0.733 | 0.641
x1 = 0.6623 | 0.884 | 0.758 | 0.661
x1 = 0.7219 | 0.903 | 0.774 | 0.675
x1 = 0.8014 | 0.93 | 0.792 | 0.691
x1 = 0.8649 | 0.949 | 0.807 | 0.702
x1 = 0.8944 | 0.958 | 0.813 | 0.708
x1 = 0.9047 | 0.961 | 0.816 | 0.71
x1 = 0.9232 | 0.966 | 0.821 | 0.713
x1 = 0.9316 | 0.969 | 0.823 | 0.714
x1 = 0.9372 | 0.97 | 0.823 | 0.715
x1 = 0.9528 | 0.975 | 0.826 | 0.718

COCCOCCOC + COC(=O)c1ccccc1
viscosity [mPa·s], 101.33 kPa
Details | x1 = 0.1017 | x1 = 0.1985 | x1 = 0.3026 | x1 = 0.3989 | x1 = 0.4978 | x1 = 0.599 | x1 = 0.6958 | x1 = 0.7991 | x1 = 0.8979
298.15 K | 1.707 | 1.622 | 1.532 | 1.448 | 1.367 | 1.286 | 1.209 | 1.129 | 1.055
303.15 K | 1.542 | 1.467 | 1.389 | 1.317 | 1.245 | 1.173 | 1.105 | 1.036 | 0.971
308.15 K | 1.401 | 1.334 | 1.264 | 1.2 | 1.137 | 1.073 | 1.014 | 0.953 | 0.894
313.15 K | 1.279 | 1.218 | 1.155 | 1.1 | 1.044 | 0.987 | 0.934 | 0.879 | 0.828
318.15 K | 1.169 | 1.116 | 1.061 | 1.012 | 0.962 | 0.911 | 0.862 | 0.814 | 0.768

COCCOCCOC + COC(C)=O
viscosity [mPa·s], 101.33 kPa
Details | x1 = 0.1 | x1 = 0.198 | x1 = 0.2969 | x1 = 0.4015 | x1 = 0.4988 | x1 = 0.5951 | x1 = 0.6954 | x1 = 0.7941 | x1 = 0.8973
298.15 K | 0.441 | 0.498 | 0.559 | 0.621 | 0.683 | 0.741 | 0.801 | 0.861 | 0.922
303.15 K | 0.418 | 0.47 | 0.526 | 0.582 | 0.639 | 0.691 | 0.746 | 0.799 | 0.855
308.15 K | 0.396 | 0.445 | 0.496 | 0.548 | 0.6 | 0.646 | 0.696 | 0.745 | 0.795
313.15 K | 0.376 | 0.418 | 0.469 | 0.516 | 0.564 | 0.607 | 0.652 | 0.697 | 0.741

ClC(Cl)C(Cl)Cl + COC(C)=O
303.15 K, 101.3 kPa
Details | viscosity [mPa·s]
x2 = 0.103 | 1.379
x2 = 0.1999 | 1.268
x2 = 0.3012 | 1.147
x2 = 0.3998 | 1.029
x2 = 0.5031 | 0.8951
x2 = 0.6017 | 0.764
x2 = 0.6999 | 0.6464
x2 = 0.8014 | 0.5324
x2 = 0.9019 | 0.4308

CCCCCCN + COCCO
308.15 K, 101 kPa
Details | viscosity [mPa·s]
x2 = 0.1567 | 0.8278
x2 = 0.2965 | 1.059
x2 = 0.4194 | 1.245
x2 = 0.5291 | 1.381
x2 = 0.6276 | 1.456
x2 = 0.7166 | 1.459
x2 = 0.7973 | 1.434
x2 = 0.8708 | 1.397
x2 = 0.9382 | 1.338

CNc1ccccc1 + CS(C)=O
303 K, 101.33 kPa
Details | viscosity [mPa·s]
x1 = 0.101 | 1.844
x1 = 0.2001 | 1.861
x1 = 0.3007 | 1.939
x1 = 0.3986 | 2.046
x1 = 0.4987 | 2.03
x1 = 0.6003 | 2.106
x1 = 0.6987 | 2.12
x1 = 0.8007 | 2.057
x1 = 0.9015 | 1.911

Oc1ccccc1 + CS(C)=O
viscosity [mPa·s], 101 kPa
Details | x2 = 0.2 | x2 = 0.3 | x2 = 0.4 | x2 = 0.5 | x2 = 0.6 | x2 = 0.7 | x2 = 0.8 | x2 = 0.9
298.15 K | 8.913 | 7.767 | 6.467 | 5.173 | 4.111 | 3.282 | 2.726 | 2.308
308.15 K | 5.87 | 5.328 | 4.618 | 3.826 | 3.127 | 2.579 | 2.192 | 1.902
318.15 K | 4.15 | 3.888 | 3.486 | 2.977 | 2.489 | 2.09 | 1.794 | 1.577

Oc1ccccc1 + C[N+](C)(C)CCO.[Cl-]
viscosity
Details | 101 kPa | 101.33 kPa
293.15 K, x2 = 0.2 | – | 61.78 mPa·s
293.15 K, x2 = 0.25 | – | 72.04 mPa·s
293.15 K, x2 = 0.333 | 137.7 mPa·s | –
298.15 K, x1 = 0.7 | – | 122.5 mPa·s
298.15 K, x1 = 0.8 | – | 56.11 mPa·s and 39.28 mPa·s and 30.65 mPa·s
298.15 K, x1 = 0.9 | – | 26.18 mPa·s
298.15 K, x2 = 0.333 | 99.81 mPa·s | –
303.15 K, x2 = 0.2 | 36.55 mPa·s | 37.73 mPa·s
303.15 K, x2 = 0.25 | 41.2 mPa·s | 43.1 mPa·s
303.15 K, x2 = 0.333 | 75.03 mPa·s and 76.44 mPa·s | –
308.15 K, x2 = 0.333 | 57.85 mPa·s | –
313.15 K, x2 = 0.2 | 23.57 mPa·s | 24.63 mPa·s
313.15 K, x2 = 0.25 | 26.84 mPa·s | 27.84 mPa·s
313.15 K, x2 = 0.333 | 46.41 mPa·s and 45.29 mPa·s | –
318.15 K, x2 = 0.333 | 35.93 mPa·s | –
323.15 K, x2 = 0.2 | 16.21 mPa·s | 17.07 mPa·s
323.15 K, x2 = 0.25 | 18.62 mPa·s | 19.11 mPa·s
323.15 K, x2 = 0.333 | 30.68 mPa·s and 28.71 mPa·s | –

Oc1ccccc1 + Cc1cccc(O)c1
298.15 K, 101 kPa
Details | viscosity [mPa·s]
x1 = 0.1259 | 12.5
x1 = 0.2449 | 11.69
x1 = 0.3137 | 11.31
x1 = 0.3848 | 10.95
x1 = 0.4502 | 10.7
x1 = 0.5174 | 10.4
x1 = 0.6352 | 9.961
x1 = 0.7325 | 9.698
x1 = 0.819 | 9.398
x1 = 0.8921 | 9.206
x1 = 0.9301 | 9.105

CC=CC(=O)O + Cc1ccccc1
viscosity [mPa·s], 101 kPa
Details | 298.15 K | 303.15 K | 313.15 K | 323.15 K
x1 = 0.0503 | 0.5712 | 0.5371 | 0.4796 | 0.4317
x1 = 0.0975 | 0.5997 | 0.5609 | 0.4998 | 0.4502
x1 = 0.148 | 0.6218 | 0.5858 | 0.5213 | 0.4671

CCCCCCN + Cc1ccccc1
303.15 K, 101 kPa
Details | viscosity [mPa·s]
x2 = 0.1238 | 0.6558
x2 = 0.2561 | 0.6124
x2 = 0.3598 | 0.5834
x2 = 0.4481 | 0.5588
x2 = 0.5709 | 0.5327
x2 = 0.6774 | 0.5177
x2 = 0.7639 | 0.5072
x2 = 0.8616 | 0.5035
x2 = 0.9319 | 0.5102
